Values quoted from earlier work as cited in patent US20260225982A1, “NEW METHOD FOR OZONOLYSIS AND REDUCTIVE QUENCHING OF OZONIDES” (P2 SCIENCE, INC., priority 2023, published 2026).

Tests used:
[1] = species and route not given; given in comparison with oral rat LD50 of glyoxal

In the case of `[Cl-].[Na+]` [table salt], the LD50 [1] is listed as 3000 mg/kg.

In the case of `O=CC(=O)O` [Glyoxylic acid], the “rat LD50” value (rat; in vivo) is listed as 2500 mg/kg.

In the case of `O=CC=O` [Glyoxal], the “oral rat LD50” value (rat; oral) is given as 3300 mg/kg.
